Test results published in ChEMBL document CHEMBL4308854, “Novel indole-thiazolidinone conjugates: Design, synthesis and whole-cell phenotypic evaluation as a novel class of antimicrobial agents” (Eur J Med Chem, 2018).
In brackets after ≈: the same amount, converted by molar mass.

What was measured:
EKVX = experiment: Growth inhibition of human EKVX cells assessed as cell growth at 10^-5 M incubated for 48 hrs by sulforhodamine B assay relative to control; type: cell-based; set-up: scale not given: the % may be the effect or the level left; conditions: 10 µM
NCI-H522 = experiment: Growth inhibition of human NCI-H522 cells assessed as cell growth at 10^-5 M incubated for 48 hrs by sulforhodamine B assay relative to control; type: cell-based; set-up: scale not given: the % may be the effect or the level left; conditions: nci-h522, 48 h, 10 µM
Aspergillus fumigatus = experiment: Antifungal activity against Aspergillus fumigatus RCMB 02568 after 24 hrs by serial dilution method; type: functional; conditions: RCMB 02568, 24 h
Hs-578T = experiment: Growth inhibition of human Hs 578T cells assessed as cell growth at 10^-5 M incubated for 48 hrs by sulforhodamine B assay relative to control; type: cell-based; set-up: scale not given: the % may be the effect or the level left; conditions: 10 µM
U-251 = experiment: Growth inhibition of human U251 cells assessed as cell growth at 10^-5 M incubated for 48 hrs by sulforhodamine B assay relative to control; type: cell-based; set-up: scale not given: the % may be the effect or the level left; conditions: u-251, 48 h, 10 µM
K562 = experiment: Growth inhibition of human K562 cells assessed as cell growth at 10^-5 M incubated for 48 hrs by sulforhodamine B assay relative to control; type: cell-based; set-up: scale not given: the % may be the effect or the level left; conditions: k562, 48 h, 10 µM
[1] = test system: Mycobacterium tuberculosis; experiment: Antitubercular activity against Mycobacterium tuberculosis RCMB 010126 clinical isolate after 4 days by microplate alamar blue assay; type: functional; conditions: for MIC: Mycobacterium tuberculosis, RCMB 010126, 96 h
OVCAR-4 = experiment: Growth inhibition of human OVCAR4 cells assessed as cell growth at 10^-5 M incubated for 48 hrs by sulforhodamine B assay relative to control; type: cell-based; set-up: scale not given: the % may be the effect or the level left; conditions: ovcar-4, 48 h, 10 µM
A549 = experiment: Growth inhibition of human A549 cells assessed as cell growth at 10^-5 M incubated for 48 hrs by sulforhodamine B assay relative to control; type: cell-based; set-up: scale not given: the % may be the effect or the level left; conditions: a549, 48 h, 10 µM
SF-295 = experiment: Growth inhibition of human SF295 cells assessed as cell growth at 10^-5 M incubated for 48 hrs by sulforhodamine B assay relative to control; type: cell-based; set-up: scale not given: the % may be the effect or the level left; conditions: sf-295, 48 h, 10 µM
NCI-H460 = experiment: Growth inhibition of human NCI-H460 cells assessed as cell growth at 10^-5 M incubated for 48 hrs by sulforhodamine B assay relative to control; type: cell-based; set-up: scale not given: the % may be the effect or the level left; conditions: nci-h460, 48 h, 10 µM
[2] = Selectivity index, ratio of IC50 for human WI38 cells to MIC for Mycobacterium tuberculosis RCMB 010126 clinical isolate; type: toxicity; conditions: read-out: Selectivity Index
SN12C = experiment: Growth inhibition of human SN12C cells assessed as cell growth at 10^-5 M incubated for 48 hrs by sulforhodamine B assay relative to control; type: cell-based; set-up: scale not given: the % may be the effect or the level left; conditions: 10 µM
Mycolicibacterium aurum = experiment: Antitubercular activity against Mycobacterium aurum infected in mouse RAW264.7 cells measured after 48 hrs; type: functional
Staphylococcus aureus = experiment: Antibacterial activity against Staphylococcus aureus RCMB 010028 after 24 hrs by serial dilution method; type: functional; conditions: RCMB 010028, 24 h
SNB-75 = experiment: Growth inhibition of human SNB75 cells assessed as cell growth at 10^-5 M incubated for 48 hrs by sulforhodamine B assay relative to control; type: cell-based; set-up: scale not given: the % may be the effect or the level left; conditions: snb-75, 48 h, 10 µM
HCT-116 = experiment: Growth inhibition of human HCT116 cells assessed as cell growth at 10^-5 M incubated for 48 hrs by sulforhodamine B assay relative to control; type: cell-based; set-up: scale not given: the % may be the effect or the level left; conditions: hct-116, 48 h, 10 µM
MDA-MB-231 = experiment: Growth inhibition of human MDA-MB-231 cells assessed as cell growth at 10^-5 M incubated for 48 hrs by sulforhodamine B assay relative to control; type: cell-based; set-up: scale not given: the % may be the effect or the level left; conditions: mda-mb-231, 48 h, 10 µM
BT-549 = experiment: Growth inhibition of human BT549 cells assessed as cell growth at 10^-5 M incubated for 48 hrs by sulforhodamine B assay relative to control; type: cell-based; set-up: scale not given: the % may be the effect or the level left; conditions: bt-549, 48 h, 10 µM
T47D = experiment: Growth inhibition of human T47D cells assessed as cell growth at 10^-5 M incubated for 48 hrs by sulforhodamine B assay relative to control; type: cell-based; set-up: scale not given: the % may be the effect or the level left; conditions: 10 µM
HCC 2998 = experiment: Growth inhibition of human HCC2998 cells assessed as cell growth at 10^-5 M incubated for 48 hrs by sulforhodamine B assay relative to control; type: cell-based; set-up: scale not given: the % may be the effect or the level left; conditions: hcc 2998, 48 h, 10 µM
NCI/ADR-RES = experiment: Growth inhibition of human NCI/ADR-RES cells assessed as cell growth at 10^-5 M incubated for 48 hrs by sulforhodamine B assay relative to control; type: cell-based; set-up: scale not given: the % may be the effect or the level left; conditions: 10 µM
Pseudomonas aeruginosa [3] = experiment: Antibacterial activity against Pseudomonas aeruginosa RCMB 010043 after 24 hrs by serial dilution method; type: functional; conditions: RCMB 010043, 24 h
SW-620 = experiment: Growth inhibition of human SW620 cells assessed as cell growth at 10^-5 M incubated for 48 hrs by sulforhodamine B assay relative to control; type: cell-based; set-up: scale not given: the % may be the effect or the level left; conditions: sw-620, 48 h, 10 µM
Candida albicans = experiment: Antifungal activity against Candida albicans RCMB 05036 assessed as diameter of zone inhibition after 48 hrs by agar well diffusion assay; type: functional
SNB-19 = experiment: Growth inhibition of human SNB19 cells assessed as cell growth at 10^-5 M incubated for 48 hrs by sulforhodamine B assay relative to control; type: cell-based; set-up: scale not given: the % may be the effect or the level left; conditions: snb-19, 48 h, 10 µM
HL-60(TB) = experiment: Growth inhibition of human HL-60(TB) cells assessed as cell growth at 10^-5 M incubated for 48 hrs by sulforhodamine B assay relative to control; type: cell-based; set-up: scale not given: the % may be the effect or the level left; conditions: 10 µM
Escherichia coli = experiment: Potency index, ratio of ciprofloxacin MIC to compound MIC for Escherichia coli RCMB 010052; type: functional
UACC-62 = experiment: Growth inhibition of human UACC62 cells assessed as cell growth at 10^-5 M incubated for 48 hrs by sulforhodamine B assay relative to control; type: cell-based; set-up: scale not given: the % may be the effect or the level left; conditions: uacc-62, 48 h, 10 µM
MDA-MB-468 = experiment: Growth inhibition of human MDA-MB-468 cells assessed as cell growth at 10^-5 M incubated for 48 hrs by sulforhodamine B assay relative to control; type: cell-based; set-up: scale not given: the % may be the effect or the level left; conditions: mda-mb-468, 48 h, 10 µM
LOX IMVI = experiment: Growth inhibition of human LOXIMVI cells assessed as cell growth at 10^-5 M incubated for 48 hrs by sulforhodamine B assay relative to control; type: cell-based; set-up: scale not given: the % may be the effect or the level left; conditions: 10 µM
TK-10 = experiment: Growth inhibition of human TK10 cells assessed as cell growth at 10^-5 M incubated for 48 hrs by sulforhodamine B assay relative to control; type: cell-based; set-up: scale not given: the % may be the effect or the level left; conditions: tk-10, 48 h, 10 µM
HT-29 = experiment: Growth inhibition of human HT-29 cells assessed as cell growth at 10^-5 M incubated for 48 hrs by sulforhodamine B assay relative to control; type: cell-based; set-up: scale not given: the % may be the effect or the level left; conditions: ht-29, 48 h, 10 µM
Pseudomonas aeruginosa [4] = experiment: Antibacterial activity against Pseudomonas aeruginosa RCMB 010043 assessed as diameter of zone inhibition after 24 hrs by agar well diffusion assay; type: functional
CCRF-CEM = experiment: Growth inhibition of human CCRF-CEM cells assessed as cell growth at 10^-5 M incubated for 48 hrs by sulforhodamine B assay relative to control; type: cell-based; set-up: scale not given: the % may be the effect or the level left; conditions: 10 µM
SR = experiment: Growth inhibition of human SR cells assessed as cell growth at 10^-5 M incubated for 48 hrs by sulforhodamine B assay relative to control; type: cell-based; set-up: scale not given: the % may be the effect or the level left; conditions: 10 µM

## CC(=O)c1sc(/N=C2\NC(=O)/C(=C3/C(=O)N(C)c4ccc(Cl)cc43)S2)nc1C
EKVX
  Activity: 95.78%
NCI-H522
  Activity: 88.75%
Aspergillus fumigatus
  MIC: 0.98 µg/mL (≈ 2.26 µM)
Hs-578T
  Activity: 115.73%
U-251
  Activity: 113.76%
K562
  Activity: 100.75%
[1]
  inhibition (INH): 76.35%
  MIC: 0.39 µg/mL (≈ 0.901 µM)
OVCAR-4
  Activity: 94.35%
A549
  Activity: 105.29%
SF-295
  Activity: 101.25%
NCI-H460
  Activity: 113.18%
[2]
  selectivity ratio: 50
SN12C
  Activity: 96.85%
Mycolicibacterium aurum
  MIC: 25 µg/mL (≈ 57.7 µM)
Staphylococcus aureus
  MIC: 0.98 µg/mL (≈ 2.26 µM)
SNB-75
  Activity: 104.77%
HCT-116
  Activity: 94.04%
MDA-MB-231
  Activity: 91.15%
BT-549
  Activity: 94.91%
T47D
  Activity: 106.34%
HCC 2998
  Activity: 112.5%
NCI/ADR-RES
  Activity: 99.92%
Pseudomonas aeruginosa [3]
  MIC: 0.98 µg/mL (≈ 2.26 µM)
SW-620
  Activity: 119.01%
Candida albicans
  diameter of the inhibition zone (DIZ): 24.1 mm
SNB-19
  Activity: 98.6%
HL-60(TB)
  Activity: 98.79%
Escherichia coli
  Ratio: 4
UACC-62
  Activity: 84.61%
MDA-MB-468
  Activity: 94.2%
LOX IMVI
  Activity: 88.14%
TK-10
  Activity: 118.37%
HT-29
  Activity: 98.45%
Pseudomonas aeruginosa [4]
  diameter of the inhibition zone (DIZ): 22.2 mm
CCRF-CEM
  Activity: 111%
SR
  Activity: 115.03%

## CCOC(=O)c1sc(/N=C2\NC(=O)/C(=C3/C(=O)N(Cc4ccccc4)c4ccc(Cl)cc43)S2)nc1C
EKVX
  Activity: 100.9%
NCI-H522
  Activity: 90.82%
Aspergillus fumigatus
  MIC: 1.95 µg/mL (≈ 3.62 µM)
Hs-578T
  Activity: 94.4%
U-251
  Activity: 99.74%
K562
  Activity: 101.93%
[1]
  inhibition (INH): 75.32%
  MIC: 0.39 µg/mL (≈ 0.724 µM)
OVCAR-4
  Activity: 110.06%
A549
  Activity: 97.17%
SF-295
  Activity: 103.03%
NCI-H460
  Activity: 101.98%
[2]
  selectivity ratio: 133
SN12C
  Activity: 102.35%
Mycolicibacterium aurum
  MIC: 50 µg/mL (≈ 92.8 µM)
Staphylococcus aureus
  MIC: 0.98 µg/mL (≈ 1.82 µM)
SNB-75
  Activity: 90.57%
HCT-116
  Activity: 96.07%
MDA-MB-231
  Activity: 100.41%
BT-549
  Activity: 103.71%
T47D
  Activity: 96.84%
HCC 2998
  Activity: 109.14%
NCI/ADR-RES
  Activity: 101.26%
Pseudomonas aeruginosa [3]
  MIC: 1.95 µg/mL (≈ 3.62 µM)
SW-620
  Activity: 98.41%
Candida albicans
  diameter of the inhibition zone (DIZ): 21.7 mm
SNB-19
  Activity: 103.82%
HL-60(TB)
  Activity: 105.41%
Escherichia coli
  Ratio: 2
UACC-62
  Activity: 103.68%
MDA-MB-468
  Activity: 108.31%
LOX IMVI
  Activity: 96.03%
TK-10
  Activity: 97.92%
HT-29
  Activity: 100.13%
Pseudomonas aeruginosa [4]
  diameter of the inhibition zone (DIZ): 22.3 mm
CCRF-CEM
  Activity: 98.38%
SR
  Activity: 102.18%
